The text below walks through data of patent US20210213006A1, “METHODS OF TREATING NEURODEGENERATIVE DISEASES” (Seal Rock Therapeutics, Inc., priority 2018, published 2021).

Broadly, the IC50 is the concentration that inhibits the measured activity by half.

One test addresses T1, ASK1 (Homo sapiens, UniProt Q99683).
T1 construct: purchased Promega V3881
Description: ASK1 Kinase Assay (Promega ASK1 Kinase Enzyme System, ADP-Glo). The test is classed as biochemical. The note with it: enzyme 50 nM, Myelin basic protein 1 μg/ml, ATP 10 μM. As to the method: ASK1 Kinase Assay. The ASK1 enzymatic assay was run following Promega ASK1 Kinase Enzyme System (Cat #V3881). The kit provides the protocol, enzymes and all reagents necessary to run an assay.
Firstly, the compounds, enzyme, substrate and ATP were diluted in provided assay buffer. The final concentration of the enzyme was 50 nM, substrate (Myelin basic protein) 1μg/ml and ATP 10 μM. The compound and the enzyme were pre-incubated in a 384 well white solid bottom plate (Greiner, Cat #784075) for 10 minutes. After incubation, the substrate and ATP were added and incubated for further 60 minutes. After 60 minutes, ADP-gloTM was added and plate was incubated for another 40 minutes. After 40 minutes, Kinase Detection Reagent was added and the plate was incubated for 45 minutes. After 45 minutes, plate was read on Perkin Elmer EnVision using luminescence read (0.5 seconds/well).
For orientation: ADP-Glo first removes unused ATP, then detects ADP through luciferase.

Test [1] has as its target T2, recombinant human full-length DYRK1A protein (Homo sapiens, UniProt Q13627).
T2 construct: recombinant human full-length DYRK1A protein; GST; host or cells: insect cells
Kind of test: DYRK1A Kinase Assay (microfluidics detection). The note with it: enzyme 0.01 nM, ATP 20 μM, DYRKtide peptide 1 μM, 3 h. Type of test: biochemical. As to the method:
The DYRK1A kinase assay was performed using recombinant human full-length DYRK1A protein (GST-tagged, expressed in insect cells), in a 12-concentration IC50 format with singlicate wells (12 pt IC50), using microfluidics detection technology. Kinase reactions were assembled in 384 well plates (Greiner) in a total volume of 20 uL as follows: kinase protein was pre-diluted in assay buffer comprising: 100 mM HEPES, pH 7.5, 0.1% BSA, 0.01% Triton X-100, 1mM DTT, 5mM MgCl2 and dispensed into 384 well plate (10 μL per well). All compounds and reference standards were serially pre-diluted in DMSO and added to the protein samples by acoustic dispensing (Labcyte Echo). DMSO concentration was equalized to 1% in all samples. Control samples (0%-inhibition in the absence of inhibitor, DMSO only) and 100%-inhibition (in the absence of enzyme) are assembled in replicates of four and used to calculate the %-inhibition in the presence of compounds. Reactions were initiated by addition of […] of FAM-labeled DYRKtide peptide substrate and ATP prepared in the same assay buffer. Final concentrations of enzyme, ATP and substrate peptide were 0.01 nM, 20 μM and 1 μM, respectively. The kinase reactions are allowed to proceed for 3 h at room temperature. Following incubation, the reactions were quenched by addition of 50 μL of termination buffer (100 mM HEPES, pH7.5, 0.01% Triton X-100, 50 mM EDTA). Terminated plates are analyzed on a microfluidic electrophoresis instrument (Caliper LabChip® 3000, Caliper Life Sciences/Perkin Elmer), enabling electrophoretic separation and detection of product and substrate. A change in the relative intensity of the peptide substrate and phosphorylated product was the parameter measured. Activity in each test sample was determined as the product to sum ratio (PSR): P/(S+P), where P is the peak height of the product, and S is the peak height of the substrate. Percent inhibition (Pinh) was determined using the following equation: Pinh=(PSR0% inh—PSR compound)/(PSR0% inh—PSR100% inh)*100, in which: PSR compound is the product/sum ratio in the presence of compound, PSR0% inh is the product/sum ratio in the absence of compound and the PSR100% inh is the product/sum ratio in the absence of the enzyme. The compound IC50 (50%-inhibition) was determined by the %-inh data (Pinh versus compound concentration) fitted by a 4-parameter sigmoid dose-response model using XLfit software (IDBS).

T1 sequence (Q99683 649-946 limits assumed): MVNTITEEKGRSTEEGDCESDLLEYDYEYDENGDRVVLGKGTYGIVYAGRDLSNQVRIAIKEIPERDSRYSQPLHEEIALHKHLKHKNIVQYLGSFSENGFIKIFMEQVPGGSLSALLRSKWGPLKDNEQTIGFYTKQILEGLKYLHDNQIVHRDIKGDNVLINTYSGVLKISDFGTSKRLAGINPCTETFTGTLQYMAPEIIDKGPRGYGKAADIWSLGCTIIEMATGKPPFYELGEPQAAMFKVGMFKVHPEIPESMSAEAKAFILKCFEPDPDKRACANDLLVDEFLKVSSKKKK

Consider “N-(3-(5-(6-(4-Cyclopropyl-4H-1,2,4-triazol-3-yl)pyridin-2-yl)-6-oxo-5,6-dihydro-4H-thieno[2,3-c]pyrrol-2-yl)phenypacetamide [Compound 92]”, for which the concentration for half-maximal inhibition (IC50) at ASK1 is 200 to 1000 nM; in test [1], below 200 nM. On to `CC(C)CNc1csc2c1CN(c1cccc(-c3nncn3C3CC3)n1)C2=O` [Compound 101, 5-(6-(4-cyclopropyl-4H-1,2,4-triazol-3-yl)pyridin-2-yl)-3-(isobutylamino)-4,5-dihydro-6H-thieno[2,3-c] pyrrol-6-one], for which, in test [1], the 50% inhibitory concentration (IC50) was 1000 to 10000 nM. With `O=C1c2sc3ccccc3c2CN1c1cccc(-c2nncn2C2CC2)n1` [Compound 95, 2-(6-(4-cyclopropyl-4H-1,2,4-triazol-3-yl)pyridin-2-yl)-1,2-dihydro-3H-benzo[4,5]thieno[2,3-c]pyrrol-3-one], the values for the IC50 (on ASK1; in test [1]) were 200 to 1000 nM and 1000 to 10000 nM, respectively. The like results for `O=C1c2sccc2CN1c1cccc(-c2nncn2C2CC2)n1` [Compound 90, 5-(6-(4-Cyclopropyl-4H-1,2,4-triazol-3-yl)pyridin-2-yl)-4,5-dihydro-6H-thieno[2,3-c]pyrrol-6-one] were, in that order, below 200 nM and 200 to 1000 nM. The like results for `CN(C)c1cc2c(s1)C(=O)N(c1cccc(-c3nncn3C3CC3)n1)C2` [Compound 104, 5-(6-(4-cyclopropyl-4H-1,2,4-triazol-3-yl)pyridin-2-yl)-2-(dimethylamino)-4,5-dihydro-6H-thieno[2,3-c] pyrrol-6-one] were, in that order, 200 to 1000 nM and 200 to 1000 nM. The like results for `Cc1csc2c1CN(c1cccc(-c3nncn3C3CC3)n1)C2=O` [Compound 99, 5-(6-(4-cyclopropyl-4H-1,2,4-triazol-3-yl)pyridin-2-yl)-3-methyl-4,5-dihydro-6H-thieno[2,3-c]pyrrol-6-one] were, in that order, 200 to 1000 nM and 1000 to 10000 nM.

For `O=C1c2sc(C3CCOCC3)cc2CN1c1cccc(-c2nncn2C2CC2)n1` [Compound 93, 5-(6-(4-cyclopropyl-4H-1,2,4-triazol-3-yl)pyridin-2-yl)-2-(tetrahydro-2H-pyran-4-yl)-4,5-dihydro-6H-thieno[2,3-c]pyrrol-6-one], the concentration for half-maximal inhibition (IC50) against ASK1 is 200 to 1000 nM; in test [1], below 200 nM.

On to `O=C1c2scc(C3CCOCC3)c2CN1c1cccc(-c2nncn2C2CC2)n1` [Compound 98, 5-(6-(4-cyclopropyl-4H-1,2,4-triazol-3-yl)pyridin-2-yl)-3-(tetrahydro-2H-pyran-4-yl)-4,5-dihydro-6H-thieno[2,3-c]pyrrol-6-one], for which the IC50 (against ASK1; in test [1]) was 1000 to 10000 nM throughout. Take `COc1cc2c(s1)C(=O)N(c1cccc(-c3nncn3C3CC3)n1)C2` [Compound 102, 5-(6-(4-cyclopropyl-4H-1,2,4-triazol-3-yl)pyridin-2-yl)-2-methoxy-4,5-dihydro-6H-thieno[2,3-c]pyrrol-6-one]: the IC50 on ASK1 is below 200 nM; in test [1], 200 to 1000 nM.

On to `CC(C)n1cnnc1-c1cccc(N2Cc3ccsc3C2=O)n1` [Compound 103, 5-(6-(4-isopropyl-4H-1,2,4-triazol-3-yl)pyridin-2-yl)-4,5-dihydro-6H-thieno[2,3-c]pyrrol-6-one], for which the concentration for half-maximal inhibition (IC50) (on ASK1; in test [1]) was below 200 nM in each case. On to `CC(=O)c1ccccc1-c1cc2c(s1)C(=O)N(c1cccc(-c3nncn3C3CC3)n1)C2` [Compound 91, 2-(2-Acetylphenyl)-5-(6-(4-cyclopropyl-4H-1,2,4-triazol-3-yl)pyridin-2-yl)-4,5-dihydro-6H-thieno[2,3-c]pyrrol-6-one], for which the concentration for half-maximal inhibition (IC50) (on ASK1; in test [1]) was 200 to 1000 nM throughout.

Regarding `Cc1cc2c(s1)C(=O)N(c1cccc(-c3nncn3C3CC3)n1)C2` [Compound 96, 5-(6-(4-cyclopropyl-4H-1,2,4-triazol-3-yl)pyridin-2-yl)-2-methyl-4,5-dihydro-6H-thieno[2,3-c]pyrrol-6-one], the values for the IC50 (on ASK1; in test [1]) were below 200 nM and 200 to 1000 nM, respectively. As to `O=C1c2scc(-c3ccccc3)c2CN1c1cccc(-c2nncn2C2CC2)n1` [Compound 94, 5-(6-(4-cyclopropyl-4H-1,2,4-triazol-3-yl)pyridin-2-yl)-3-phenyl-4,5-dihydro-6H-thieno[2,3-c]pyrrol-6-one], the half-inhibitory concentration (IC50) against ASK1 was in the range of 200 to 1000 nM; in test [1], 1000 to 10000 nM. `CCc1cc2c(s1)C(=O)N(c1cccc(-c3nncn3C3CC3)n1)C2` [Compound 97, 5-(6-(4-cyclopropyl-4H-1,2,4-triazol-3-yl)pyridin-2-yl)-2-ethyl-4,5-dihydro-6H-thieno[2,3-c]pyrrol-6-one]: the results for the concentration for half-maximal inhibition (IC50) (at ASK1; in test [1]) were 200 to 1000 nM and below 200 nM, respectively.

On to `O=C1c2scc(Br)c2CN1c1cccc(-c2nncn2C2CC2)n1` [Compound 100, 3-bromo-5-(6-(4-cyclopropyl-4H-1,2,4-triazol-3-yl)pyridin-2-yl)-4,5-dihydro-6H-thieno[2,3-c]pyrrol-6-one], for which the IC50 against ASK1 was 200 to 1000 nM; in test [1] it was 1000 to 10000 nM.
